Converted amounts (≈) assume the structure as drawn. Numbered stars: 1 amine (or outer) side, 2 acyl side, 3 side chain; on linkers, the order of the positions; unused ones are H or OH. Square brackets hold non-standard residues; d marks the D form. Peptide text beside a SMILES is read from it. ξ: configuration not given here. X1 = N=C1NCC(C(O)C(N[*:1])C(=O)[*:2])N1C1OC(CO)C(O)C(O)C1O; ξEnduracididine(βξ-OH,4'ξ) = N=C1NCC(C(O)C(N)C(=O)O)N1
How the values were obtained:
Assay in all cases: In vitro antibacterial evaluation: minimum inhibitory concentration (MIC), broth dilution method
Format in all cases: cell-based
Staphylococcus sp. = conditions: 18 hours at 35° C.
In short: (§1)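 Values are minimum inhibitory concentrations, meaning the smallest antibiotic concentration that stops growth of the organism. They come from broth dilution in Muller-Hinton II […] per NCCLS guidance (M7-A2), using 5×10^5 CFU/mL and concentrations from 64 to 0.06 μg/mL.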

Escherichia coli [1] = test system: Escherichia coli
In short: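 Using Muller-Hinton II […] and an inoculum of 5×10^5 CFU/mL, antibiotic dilutions from 64 down to 0.06 μg/mL were tested following NCCLS M7-A2. The MIC is the lowest concentration inhibiting growth, including in methicillin-, penicillin- or vancomycin-resistant clinical isolates.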

Enterococcus sp. = test system: Enterococcus sp.
In short: as §1

Escherichia coli [2] = test system: Escherichia coli; remark: listed apart in the source

`N=C1NCC(C(O)C2NC(=O)C(Cc3ccc(O)cc3)NC(=O)C(Cc3ccccc3)NC(=O)CNC(=O)C(CO)NC(=O)C(C(O)C3CNC(=N)N3C3OC(CO)C(O)C(O)C3O)NC2=O)N1` (stereo not drawn) [Example 279a, Cyclo[glycylphenylalanyltyrosyl-3-(2-iminoimidazolidin-4-yl)seryl-3-(3-hexopyranosyl-2-iminoimidazolidin-4-yl)serylseryl]] (cyclo(GFY[ξEnduracididine(βξ-OH,4'ξ)][X1]S); configuration not given here) was tested, and the “MIC Coagulase Negative Staphylococcus (GC 4547)” value (Staphylococcus sp.) was 64 µg/mL (≈ 66.9 µM), the “MIC Coagulase Negative Staphylococcus (GC 4547)” value (Staphylococcus sp.; broth dilution) was 64 µg/mL (≈ 66.9 µM) and the “MIC Coagulase Negative Staphylococcus (GC 4548)” value (Staphylococcus sp.) was over 64 µg/mL. For the same compound, the “MIC Coagulase Negative Staphylococcus (GC 4548)” value (Staphylococcus sp.; broth dilution) was over 64 µg/mL, the “MIC Coagulase Negative Staphylococcus (GC 4549)” value (Staphylococcus sp.) was 64 µg/mL (≈ 66.9 µM) and the “MIC Coagulase Negative Staphylococcus (GC 4549)” value (Staphylococcus sp.; broth dilution) was 64 µg/mL (≈ 66.9 µM). For the same compound, the “MIC Coagulase Negative Staphylococcus (GC 4551)” value (Staphylococcus sp.) was over 64 µg/mL, the “MIC Coagulase Negative Staphylococcus (GC 4551)” value (Staphylococcus sp.; broth dilution) was over 64 µg/mL and the “MIC Coagulase Negative Staphylococcus (GC 6257)” value (Staphylococcus sp.) was 64 µg/mL (≈ 66.9 µM). The “MIC Coagulase Negative Staphylococcus (GC 6257)” value (Staphylococcus sp.; broth dilution) was 64 µg/mL (≈ 66.9 µM), the “MIC Staphylococcus aureus (ATCC 29213)” value (Staphylococcus sp.) was over 64 µg/mL and the “MIC Staphylococcus aureus (ATCC 29213)” value (Staphylococcus sp.; broth dilution) was over 64 µg/mL. The “MIC Staphylococcus aureus (GC 1131)” value (Staphylococcus sp.) was over 64 µg/mL, the “MIC Staphylococcus aureus (GC 1131)” value (Staphylococcus sp.; broth dilution) was over 64 µg/mL and the “MIC Staphylococcus aureus (GC 3051)” value (Staphylococcus sp.) was over 64 µg/mL. The “MIC Staphylococcus aureus (GC 3051)” value (Staphylococcus sp.; broth dilution) was over 64 µg/mL, the “MIC Staphylococcus aureus (GC 3053)” value (Staphylococcus sp.) was over 64 µg/mL and the “MIC Staphylococcus aureus (GC 3053)” value (Staphylococcus sp.; broth dilution) was over 64 µg/mL. The “MIC Staphylococcus aureus (GC 4541)” value (Staphylococcus sp.) was over 64 µg/mL, the “MIC Staphylococcus aureus (GC 4541)” value (Staphylococcus sp.; broth dilution) was over 64 µg/mL and the “MIC Staphylococcus aureus (GC 4542)” value (Staphylococcus sp.) was over 64 µg/mL. The “MIC Staphylococcus aureus (GC 4542)” value (Staphylococcus sp.; broth dilution) was over 64 µg/mL, the “MIC Staphylococcus aureus (GC 4544)” value (Staphylococcus sp.) was over 64 µg/mL and the “MIC Staphylococcus aureus (GC 4544)” value (Staphylococcus sp.; broth dilution) was over 64 µg/mL. For the same compound, the “MIC Staphylococcus aureus (GC 4545)” value (Staphylococcus sp.) was over 64 µg/mL, the “MIC Staphylococcus aureus (GC 4545)” value (Staphylococcus sp.; broth dilution) was over 64 µg/mL and the “MIC Staphylococcus aureus-SMITH (GC 4543)” value (Staphylococcus sp.) was over 64 µg/mL. The “MIC Staphylococcus aureus-SMITH (GC 4543)” value (Staphylococcus sp.; broth dilution) was over 64 µg/mL, the “MIC Staphylococcus haemolyticus (GC 4546)” value (Staphylococcus sp.) was 64 µg/mL (≈ 66.9 µM) and the “MIC Staphylococcus haemolyticus (GC 4546)” value (Staphylococcus sp.; broth dilution) was 64 µg/mL (≈ 66.9 µM). The “MIC Escherichia coli (GC 4559)” value (Escherichia coli [1]) was 64 µg/mL (≈ 66.9 µM), the “MIC Escherichia coli (GC 4560)” value (Escherichia coli [1]) was 32 µg/mL (≈ 33.4 µM) and the “MIC Enterococcus avium (GC 4558)” value (Enterococcus sp.) was over 64 µg/mL. For the same compound, the “MIC Enterococcus faecalis (ATCC 29212)” value (Enterococcus sp.) was over 64 µg/mL, the “MIC Enterococcus faecalis (GC 4553)” value (Enterococcus sp.) was over 64 µg/mL and the “MIC Enterococcus faecalis (GC 4554)” value (Enterococcus sp.) was over 64 µg/mL. The “MIC Enterococcus faecalis (GC 6189)” value (Enterococcus sp.) was over 64 µg/mL, the “MIC Enterococcus faecium (GC 2243)” value (Enterococcus sp.) was over 64 µg/mL and the “MIC Enterococcus faecium (GC 4556)” value (Enterococcus sp.) was over 64 µg/mL. For the same compound, the “MIC Enterococcus faecium (GC 4557)” value (Enterococcus sp.) was 64 µg/mL (≈ 66.9 µM) and the “MIC Escherichia coli (ATCC 25922)” value (Escherichia coli [2]) was 64 µg/mL (≈ 66.9 µM).

In the case of `CCC(C)C(=O)OC1C(CO)OC(OC2C(CO)OC(Oc3ccc(CC4NC(=O)C(C(C)c5ccccc5)NC(=O)CNC(=O)C(CO)NC(=O)C(C(O)C5CNC(=N)N5C5OC(CO)C(O)C(O)C5O)NC(=O)C(C(O)C5CNC(=N)N5)NC4=O)cc3)C(O)C2O)C(O)C1O` (stereo not drawn) [Example 278c, Cyclo[glycyl-β-methylphenylalanyl-O-[4-O-[4-O-(2-methylbutanoyl)hexopyranosyl]hexopyranosyl]tyrosyl-3-(2-iminoimidazolidin-4-yl)seryl-3-(3-hexopyranosyl-2-iminoimidazolidin-4-yl)serylseryl]], the “MIC Coagulase Negative Staphylococcus (GC 4547)” value (Staphylococcus sp.) is reported as 4 µg/mL (≈ 2.9 µM), the “MIC Coagulase Negative Staphylococcus (GC 4547)” value (Staphylococcus sp.; broth dilution) is reported as 4 µg/mL (≈ 2.9 µM) and the “MIC Coagulase Negative Staphylococcus (GC 4548)” value (Staphylococcus sp.) is reported as 2 µg/mL (≈ 1.45 µM). The “MIC Coagulase Negative Staphylococcus (GC 4548)” value (Staphylococcus sp.; broth dilution) was 2 µg/mL (≈ 1.45 µM), the “MIC Coagulase Negative Staphylococcus (GC 4549)” value (Staphylococcus sp.) was 2 µg/mL (≈ 1.45 µM) and the “MIC Coagulase Negative Staphylococcus (GC 4549)” value (Staphylococcus sp.; broth dilution) was 2 µg/mL (≈ 1.45 µM). For the same compound, the “MIC Coagulase Negative Staphylococcus (GC 4551)” value (Staphylococcus sp.) was 8 µg/mL (≈ 5.8 µM), the “MIC Coagulase Negative Staphylococcus (GC 4551)” value (Staphylococcus sp.; broth dilution) was 8 µg/mL (≈ 5.8 µM) and the “MIC Coagulase Negative Staphylococcus (GC 6257)” value (Staphylococcus sp.) was 2 µg/mL (≈ 1.45 µM). For the same compound, the “MIC Coagulase Negative Staphylococcus (GC 6257)” value (Staphylococcus sp.; broth dilution) was 2 µg/mL (≈ 1.45 µM), the “MIC Staphylococcus aureus (ATCC 29213)” value (Staphylococcus sp.) was 4 µg/mL (≈ 2.9 µM) and the “MIC Staphylococcus aureus (ATCC 29213)” value (Staphylococcus sp.; broth dilution) was 4 µg/mL (≈ 2.9 µM). The “MIC Staphylococcus aureus (GC 1131)” value (Staphylococcus sp.) was 8 µg/mL (≈ 5.8 µM), the “MIC Staphylococcus aureus (GC 1131)” value (Staphylococcus sp.; broth dilution) was 8 µg/mL (≈ 5.8 µM) and the “MIC Staphylococcus aureus (GC 3051)” value (Staphylococcus sp.) was 2 µg/mL (≈ 1.45 µM). The “MIC Staphylococcus aureus (GC 3051)” value (Staphylococcus sp.; broth dilution) was 2 µg/mL (≈ 1.45 µM), the “MIC Staphylococcus aureus (GC 3053)” value (Staphylococcus sp.) was 8 µg/mL (≈ 5.8 µM) and the “MIC Staphylococcus aureus (GC 3053)” value (Staphylococcus sp.; broth dilution) was 8 µg/mL (≈ 5.8 µM). The “MIC Staphylococcus aureus (GC 4541)” value (Staphylococcus sp.) was 4 µg/mL (≈ 2.9 µM), the “MIC Staphylococcus aureus (GC 4541)” value (Staphylococcus sp.; broth dilution) was 4 µg/mL (≈ 2.9 µM) and the “MIC Staphylococcus aureus (GC 4542)” value (Staphylococcus sp.) was 4 µg/mL (≈ 2.9 µM). The “MIC Staphylococcus aureus (GC 4542)” value (Staphylococcus sp.; broth dilution) was 4 µg/mL (≈ 2.9 µM), the “MIC Staphylococcus aureus (GC 4544)” value (Staphylococcus sp.) was 4 µg/mL (≈ 2.9 µM) and the “MIC Staphylococcus aureus (GC 4544)” value (Staphylococcus sp.; broth dilution) was 4 µg/mL (≈ 2.9 µM). For the same compound, the “MIC Staphylococcus aureus (GC 4545)” value (Staphylococcus sp.) was 4 µg/mL (≈ 2.9 µM), the “MIC Staphylococcus aureus (GC 4545)” value (Staphylococcus sp.; broth dilution) was 4 µg/mL (≈ 2.9 µM) and the “MIC Staphylococcus aureus-SMITH (GC 4543)” value (Staphylococcus sp.) was 4 µg/mL (≈ 2.9 µM). The “MIC Staphylococcus aureus-SMITH (GC 4543)” value (Staphylococcus sp.; broth dilution) was 4 µg/mL (≈ 2.9 µM), the “MIC Staphylococcus haemolyticus (GC 4546)” value (Staphylococcus sp.) was 2 µg/mL (≈ 1.45 µM) and the “MIC Staphylococcus haemolyticus (GC 4546)” value (Staphylococcus sp.; broth dilution) was 2 µg/mL (≈ 1.45 µM). For the same compound, the “MIC Escherichia coli (GC 4559)” value (Escherichia coli [1]) was over 64 µg/mL, the “MIC Escherichia coli (GC 4560)” value (Escherichia coli [1]) was 2 µg/mL (≈ 1.45 µM) and the “MIC Enterococcus avium (GC 4558)” value (Enterococcus sp.) was 32 µg/mL (≈ 23.2 µM). The “MIC Enterococcus faecalis (ATCC 29212)” value (Enterococcus sp.) was 32 µg/mL (≈ 23.2 µM), the “MIC Enterococcus faecalis (GC 4553)” value (Enterococcus sp.) was 32 µg/mL (≈ 23.2 µM) and the “MIC Enterococcus faecalis (GC 4554)” value (Enterococcus sp.) was 32 µg/mL (≈ 23.2 µM). The “MIC Enterococcus faecalis (GC 6189)” value (Enterococcus sp.) was 32 µg/mL (≈ 23.2 µM), the “MIC Enterococcus faecium (GC 2243)” value (Enterococcus sp.) was 32 µg/mL (≈ 23.2 µM) and the “MIC Enterococcus faecium (GC 4556)” value (Enterococcus sp.) was 32 µg/mL (≈ 23.2 µM). For the same compound, the “MIC Enterococcus faecium (GC 4557)” value (Enterococcus sp.) was 8 µg/mL (≈ 5.8 µM) and the “MIC Escherichia coli (ATCC 25922)” value (Escherichia coli [2]) was over 64 µg/mL.

Reference: patent publication US8247211B2, “Glycopeptide antibiotics” (American Cyanamid Company, priority 2001, dated 2012)
